Experimental data as given in patent US20100061969A1, “DIETARY SUPPLEMENT, ANTI-FATIGUE AGENT OR PHYSICAL ENDURANCE ENHANCER, FUNCTIONAL FOOD, OR COSMETIC” (ASAHI KASEI PHARMA CORPORATION, priority 2006, published 2010).

Assays:
male Slc:ddY mice = experiment: Test of anti-fatigue effect and physical endurance-enhancing effect (forced swimming with weight); type: in vivo, mouse; conditions: weight 8.5% of body weight
From the text: The following method can determine whether the functional food, or anti-fatigue agent and/or physical endurance enhancer, which contains the composition of the present invention, has an anti-fatigue effect or not and physical endurance-enhancing effect or not. That is, the effect of the present invention can be determined as follows: after preliminarily feeding, attaching a weight, which is equivalent to 8.5% of the body weight of each mouse, to each mouse in a group subjected to forced oral administration with an anti-fatigue agent containing the composition of the present invention (administered group) and to each mouse in a group administered with no agent (non-administration group) three weeks after administration; forcing the mice to swim; measuring a time until the head (nose) of each mouse completely sinks in water for 7 seconds due to distress; and comparing the results between the administered group and the non-administration group.
Six-week-old male Slc:ddY mice (Charles river laboratories Japan, Inc.) were preliminarily fed for 7 days and divided into four groups each including 10 mice.
The groups include: the group administered with water (control); the group administered with oxidized coenzyme Q10 at 50 mg/kg/day (Comparative Example 1, group administered with only CoQ10); the group administered with phosphatidylinositol at 100 mg/kg/day (Comparative Example 2, group administered with only phosphatidylinositol); and the group administered with oxidized coenzyme Q10 at 50 mg/kg/day and phosphatidylinositol at 100 mg/kg/day at the same time (Test Example, group administered with CoQ10+phosphatidylinositol), and forced oral administration was performed under the above-mentioned administration conditions five days a week. Three weeks after the administration, a weight was attached to each mouse (the weight is 8.5% of the body weight of the mouse), and the mouse was forced to swim. Then, a time until the head (nose) of the mouse completely sank for 7 seconds due to distress was measured. Note that, the oxidized coenzyme Q10 and phosphatidylinositol in Test Example were simultaneously administered.

[1] = Coenzyme Q10 concentration in blood after forced oral administration (HPLC of plasma); type: in vivo, rat; conditions: rats; for Average value of total CoQ10 concentration in blood: group = 1 week pre-administration
Protocol: Seven-week-old male Slc:SD rats were preliminarily fed for 7 days, and forced oral administration (repeated oral administration) was performed for 4 rats with phosphatidylinositol at 100 mg/kg/day for 1 week. Then, forced oral administration was performed with phosphatidylinositol at 100 mg/kg/day and oxidized coenzyme Q10 at 100 mg/kg/day at the same time (PI-administered group). 0, 2, 4, and 6 hours after the forced oral administration with both phosphatidylinositol and coenzyme Q10, the whole blood was collected from the postcaval vein using heparinized injection needles and syringes under diethyl ether anesthesia. Collected blood was immediately centrifuged (4° C., 3,000 rpm, 10 minutes) to separate plasma. The separated plasma samples were used for an analysis of coenzyme Q10 by HPLC. As comparative examples, the above-mentioned procedures were performed for the group which was subjected to forced oral administration (repeated oral administration) with soybean lecithin at 500 mg/kg/day (100 mg/kg/day in terms of phosphatidylinositol) instead of phosphatidylinositol for 1 week and then to forced oral administration with both phosphatidylinositol at 100 mg/kg/day and oxidized coenzyme Q10 at 100 mg/kg/day at the same time (soybean lecithin-administered group), and the group which was subjected to forced oral administration with both phosphatidylinositol at 100 mg/kg/day and oxidized coenzyme Q10 at 100 mg/kg/day simultaneously without preliminary administration of phosphatidylinositol (PI non-administration group).

[2] = Week 3, forced oral administration five days a week

Row | Compound | Swimming time (average) (male Slc:ddY mice; Week 0, 10 mice per group) [s] | Swimming time (average) (male Slc:ddY mice; [2]) [s] | Average value of total CoQ10 concentration in blood ([1]; 0 hr after oral PI 100 mg/kg + oxidized CoQ10 100 mg/kg) [nM] | Average value of total CoQ10 concentration in blood ([1]; 2 hr after oral PI 100 mg/kg + oxidized CoQ10 100 mg/kg) | Average value of total CoQ10 concentration in blood ([1]; 4 hr after oral PI 100 mg/kg + oxidized CoQ10 100 mg/kg) | Average value of total CoQ10 concentration in blood ([1]; 6 hr after oral PI 100 mg/kg + oxidized CoQ10 100 mg/kg) [nM] | coenzyme Q10 concentrations in blood compared with the PI non-administration group ([1]; 1 week pre-administration)
1 | phosphatidylinositol | 212 | 333 | 70 | 1,983 nM | 1,927 nM | 686 | higher
2 | COC1=C(OC)C(=O)C(C/C=C(\C)CC/C=C(\C)CC/C=C(\C)CC/C=C(\C)CC/C=C(\C)CC/C=C(\C)CC/C=C(\C)CC/C=C(\C)CC/C=C(\C)CCC=C(C)C)=C(C)C1=O [CoQ10, oxidized coenzyme Q10, reference compound] | 214 | 358 | – | – | – | – | –
